Measurements from ChEMBL document CHEMBL1201862, “PubChem BioAssay data set” (2004).
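Compound exposure: 48 hours, 5 concentrations, 96-well plates. GI50 marks 50% less growth.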 Calls of active or inactive are those of the source. Cut-off read from the data, not from the text of the source: active = GI50 up to about 1.1 µM and inactive = higher.

Key:
Test in all cases: NCI anticancer screen, dose series, 48 h
786-0 = tested on: 786-0
CAKI-1 = tested on: CAKI-1
EKVX = tested on: EKVX
HT-29 = tested on: HT-29
K562 = tested on: K562
KM12 = tested on: KM12
NCI-H226 = tested on: NCI-H226
NCI/ADR-RES = tested on: NCI/ADR-RES
RPMI-8226 = tested on: RPMI-8226
SF-268 = tested on: SF-268
SK-MEL-28 = tested on: SK-MEL-28
SK-MEL-5 = tested on: SK-MEL-5
SN12C = tested on: SN12C
SNB-75 = tested on: SNB-75
UACC-62 = tested on: UACC-62
UO-31 = tested on: UO-31
HL-60 = tested on: HL-60
OVCAR-8 = tested on: OVCAR-8

Measured: GI50

Nc1ccn([C@H]2CO[C@@H](CO)[C@@H]2O)c(=O)n1
inactive: 786-0 > 100 µM | CAKI-1 > 100 µM | EKVX > 100 µM | HT-29 > 100 µM | K562 > 100 µM | KM12 > 100 µM | NCI-H226 > 100 µM | NCI/ADR-RES > 100 µM | RPMI-8226 > 100 µM | SF-268 > 100 µM | SK-MEL-28 > 100 µM | SK-MEL-5 > 100 µM | SN12C > 100 µM | SNB-75 > 100 µM | UACC-62 > 100 µM | UO-31 > 100 µM

CC1(C)OCC(COC(=O)NCn2cc(-c3ccccc3)nn2)O1 (stereo unspecified)
inactive: 786-0 > 100 µM | CAKI-1 > 100 µM | EKVX > 100 µM | HL-60 > 100 µM | HT-29 > 100 µM | K562 > 100 µM | KM12 > 100 µM | NCI-H226 > 100 µM | NCI/ADR-RES > 100 µM | OVCAR-8 > 100 µM | RPMI-8226 > 100 µM | SF-268 > 100 µM | SK-MEL-28 > 100 µM | SK-MEL-5 > 100 µM | SN12C > 100 µM | SNB-75 > 100 µM

COC(=O)C(C(=O)C(=O)Nc1c(C)cccc1C)c1cnc2ccccc2n1 (stereo unspecified)
inactive: 786-0 > 100 µM | CAKI-1 > 100 µM | EKVX > 100 µM | HL-60 > 100 µM | HT-29 > 100 µM | K562 > 100 µM | KM12 > 100 µM | NCI-H226 > 100 µM | OVCAR-8 > 100 µM | RPMI-8226 > 100 µM | SF-268 > 100 µM | SK-MEL-28 > 100 µM | SK-MEL-5 > 100 µM | SN12C > 100 µM | SNB-75 > 100 µM | UACC-62 > 100 µM | UO-31 > 100 µM

COC(=O)C1=C(OC(=O)/C(=C/c2c(F)cccc2F)c2ccccc2)C(C(=O)OC)[C@@]2(O)[C@@H](C(=O)OC)[C@H](C)C[C@@H]1[C@@H]2C(=O)OC (stereo partly specified)
inactive: 786-0 > 100 µM | CAKI-1 > 100 µM | EKVX > 100 µM | HL-60 > 100 µM | HT-29 > 100 µM | K562 > 100 µM | KM12 > 100 µM | NCI-H226 > 100 µM | NCI/ADR-RES > 100 µM | OVCAR-8 > 100 µM | SF-268 > 100 µM | SK-MEL-28 > 100 µM | SN12C > 100 µM | SNB-75 > 100 µM | UACC-62 > 100 µM | UO-31 2.9 µM

CCc1cccc(C)c1NC(=O)CC(=O)NNC(N)=S
inactive: 786-0 > 100 µM | CAKI-1 > 100 µM | EKVX > 100 µM | HL-60 > 100 µM | HT-29 > 100 µM | K562 > 100 µM | KM12 > 100 µM | NCI-H226 > 100 µM | OVCAR-8 > 100 µM | RPMI-8226 > 100 µM | SF-268 > 100 µM | SK-MEL-28 > 100 µM | SK-MEL-5 > 100 µM | SN12C > 100 µM | SNB-75 > 100 µM | UO-31 > 100 µM
